Results: patent publication US20100227841A1, “Patient populations and treatment methods” (Harbor BioSciencs, Inc., priority 2008, published 2010)

Legend:
[1] = test system: patients having type 2 diabetes; assay: Phase II double-blinded placebo controlled 12-week trial in type 2 diabetes patients on metformin; format: in vivo, human; settings: for Fasting C-peptide Change from baseline / Fasting Glucose Change from baseline / HbA1c Change from baseline / LDL Cholesterol change from baseline / Total Cholesterol change from baseline / Weight change from baseline / HOMA2% insulin sensitivity change from baseline / HOMA2% β cell function change from baseline / HOMA2 Insulin resistance change from baseline: 5 mg twice per day + metformin; for HOMA2% insulin sensitivity change from baseline / HOMA2% β cell function change from baseline / HOMA2 Insulin resistance change from baseline: calculated using C-peptide
Method: Patients having type 2 diabetes were evaluated for their baseline BMI and levels of MCP1, insulin and C peptide. The effect of treatment with 17α-ethynylandrost-5-ene-3β,7β,17β-triol (5 mg administered orally twice per day for 84 days) on total cholesterol, LDL cholesterol, hemoglobin A1c (HbA1c) plus metformin (500-2250 mg/day, which was administered in one or two doses per day for 84 days), weight, and other biological responses is shown in the tables below. The effect of treatment in all treated patients was compared with the effect of the same treatment in the responder population, characterized as having a BMI>27.99 (overweight or obese), insulin resistant (C-peptide >1.99 ng/mL or essentially normal insulin >3.99 μU/mL to about 29 μU/mL with hyperglycemia), and having an elevated serum MCP1>399.99 pg/mL, indicating a state of systemic inflammation. The responder patients were a subset of all patients were treated.
The Phase II, double-blinded placebo controlled 12-week dosing trial of example 4 enrolled 96 subjects with a hemoglobin A1c (HbA1c) level in excess of 7.5 percent and were being treated with a stable metformin dose as described above. The primary objectives of this trial were to evaluate the safety and tolerance of 17α-ethynylandrost-5-ene-3β,7β,17β-triol, 10 mg per day (5 mg twice daily), compared to placebo from baseline to week 12 and to evaluate the change in HbA1c from baseline to week 12 in the 17α-ethynylandrost-5-ene-3β,7β,17β-triol treated group when compared to the placebo group.
A retrospective analysis of data was performed on the subpopulation of patients that represented an obese, insulin-resistant, diabetic population. This analysis included patients who met the following criteria at baseline: BMI greater than or equal to 28; fasting plasma insulin levels greater than or equal to 4 μU/mL; fasting plasma C-peptide levels greater than or equal to 2 ng/mL; and serum monocyte chemoattractant protein-1 (MCP1) levels greater than or equal to 400 pg/mL. This phenotype represented 35% of all 89 patients with values reported for these parameters at baseline. Twenty-two individuals with this phenotype completed the 84 days of dosing. […] These changes in secondary indicators of activity were consistent with the observed decreases in HbA1c and glucose in this diabetic subpopulation.

[2] = test system: pre-diabetic hyperglycemic patients and patients having type 2 diabetes; assay: Biomarkers in 28-day clinical trial (serum CRP, adipokines; cytokines from LPS stimulated PBMC by ELISA); format: in vivo, human
Method: Groups of pre-diabetic hyperglycemic patients and patients having type 2 diabetes were treated for 28 days with the experimental drug 17α-ethynylandrost-5-ene-3β,7β,17β-triol (oral capsules) or with placebo. Dosages for the pre diabetic patients were 0 mg per day (placebo control; n=10), 5 mg once per day (n=9; cohort 1), 5 mg twice per day (n=8; cohort 2) or 10 mg twice per day (n=7; cohort 3). Placebos were obtained with each treatment cohort based on protocol randomization of 2 treated:1 placebo. The pre-diabetic patients were obese (body mass index ≧29 kg/m^2) and glucose intolerant (fasting plasma glucose <126 mg/dL; 2-hr post prandial glucose 140-200 mg/dL after 75 g oral glucose). The diabetic patients were dosed with 10 mg/day for 28 days (n=6; cohort 6). The glucose clamp protocol was performed on groups of patients dosed with 10 mg/day or 20 mg/day of drug at baseline, one day before drug treatment started (day −1), and one day after the last day of dosing with the drug (day 29). Patients with an M value of <5 mg glucose/kg/min (M<5) were considered insulin resistant and patients with an M value of >5 mg glucose/kg/min (M>5) were considered insulin sensitive or essentially normal for whole body glucose metabolism.
Levels of cytokine biomarkers from patients with M values measured by glucose clamp such as MCP1, TNFα, IL-6 and IL-1β were measured by ELISA as the amount of cytokine secreted from LPS stimulated peripheral blood mononuclear cells from the patients at baseline (day −1) and at 1 day after the last day of drug dosing (day 29). Levels of RBP4 and CRP protein were measured from patient serum.
The analysis of responders used standard analysis. Due to the cohort sizes and the ongoing basis of this clinical protocol, data for surrogates that corresponded to significance at p≦0.10 (trend) were considered positive evidence of surrogacy of the biomarker for the M<5 insulin resistant condition.

[3] = retrospective subpopulation, 84 days, compared to placebo, non-significant
[4] = cohort 2, 3 and 6 M<5 patients vs M>5 patients, p<0.03

With C#C[C@]1(O)CC[C@H]2[C@@H]3[C@@H](O)C=C4C[C@@H](O)CC[C@]4(C)[C@H]3CC[C@@]21C [17α-ethynylandrost-5-ene-3β,7β,17β-triol] the “Fasting C-peptide Change from baseline” value ([1]; All patients, day 29) was -0.2 ng/mL, the “Fasting Glucose Change from baseline” value ([1]; All patients, day 29) was -7.5 mg/dL and the “HbA1c Change from baseline” value ([1]; All patients, day 29) was 0 % Hb. For the same compound, the “LDL Cholesterol change from baseline” value ([1]; All patients, day 29) was 0.5 mg/dL, the “Total Cholesterol change from baseline” value ([1]; All patients, day 29) was -0.5 mg/dL and the “Weight change from baseline” value ([1]; All patients, day 29) was -0.4136 kg. The “Fasting C-peptide Change from baseline” value ([1]; All patients, day 57) was -0.2 ng/mL, the “Fasting Glucose Change from baseline” value ([1]; All patients, day 57) was 0 mg/dL and the “HbA1c Change from baseline” value ([1]; All patients, day 57) was 0.1 % Hb. The “LDL Cholesterol change from baseline” value ([1]; All patients, day 57) was -2 mg/dL, the “Total Cholesterol change from baseline” value ([1]; All patients, day 57) was -5.5 mg/dL and the “Weight change from baseline” value ([1]; All patients, day 57) was -0.4546 kg. The “Fasting C-peptide Change from baseline” value ([1]; All patients, day 84) was -0.05 ng/mL, the “Fasting Glucose Change from baseline” value ([1]; All patients, day 84) was -4.25 mg/dL and the “HbA1c Change from baseline” value ([1]; All patients, day 84) was 0.15 % Hb. The “LDL Cholesterol change from baseline” value ([1]; All patients, day 84) was 4.5 mg/dL, the “Total Cholesterol change from baseline” value ([1]; All patients, day 84) was 3 mg/dL and the “Weight change from baseline” value ([1]; All patients, day 84) was -0.03864 kg. The “HOMA2% insulin sensitivity change from baseline” value ([1]; All patients, day 29) was 4.2 % S, the “HOMA2% β cell function change from baseline” value (from here on “HOMA2% β cell function change”) ([1]; All patients, day 29) was 0.8 % b and the “HOMA2 Insulin resistance change from baseline” value (“HOMA2 Insulin resistance change” for short) ([1]; All patients, day 29) was −0.1453 IR. The “HOMA2% insulin sensitivity change from baseline” value ([1]; All patients, day 57) was 1.75 % S, the “HOMA2% β cell function change” value ([1]; All patients, day 57) was −2.15 % b and the “HOMA2 Insulin resistance change” value ([1]; All patients, day 57) was −0.0518 IR. The “HOMA2% insulin sensitivity change from baseline” value ([1]; All patients, day 84) was −1.45 % S, the “HOMA2% β cell function change” value ([1]; All patients, day 84) was 5.6 % b and the “HOMA2 Insulin resistance change” value ([1]; All patients, day 84) was 0.02309 IR. The “HbA1c Change from baseline” value ([1]; Responder patients (BMI>27.99, insulin resistant, MCP1>399.99 pg/mL), day 29) was −0.15 % Hb, the “Fasting C-peptide Change from baseline” value ([1]; Responder patients, day 29) was -0.2 ng/mL and the “Fasting Glucose Change from baseline” value ([1]; Responder patients, day 29) was -17.5 mg/dL. For the same compound, the “LDL Cholesterol change from baseline” value ([1]; Responder patients, day 29) was -8.5 mg/dL, the “Total Cholesterol change from baseline” value ([1]; Responder patients, day 29) was -0.5 mg/dL and the “Weight change from baseline” value ([1]; Responder patients, day 29) was -0.3727 kg. For the same compound, the “Fasting C-peptide Change from baseline” value ([1]; Responder patients, day 57) was 0 ng/mL, the “Fasting Glucose Change from baseline” value ([1]; Responder patients, day 57) was -7 mg/dL and the “HbA1c Change from baseline” value ([1]; Responder patients, day 57) was −0.1 % Hb. For the same compound, the “LDL Cholesterol change from baseline” value ([1]; Responder patients, day 57) was -11.5 mg/dL, the “Total Cholesterol change from baseline” value ([1]; Responder patients, day 57) was -18.5 mg/dL and the “Weight change from baseline” value ([1]; Responder patients, day 57) was -0.925 kg. The “Fasting C-peptide Change from baseline” value ([1]; Responder patients, day 84) was 0.25 ng/mL, the “Fasting Glucose Change from baseline” value ([1]; Responder patients, day 84) was -13 mg/dL and the “HbA1c Change from baseline” value ([1]; Responder patients, day 84) was −0.425 % Hb. For the same compound, the “LDL Cholesterol change from baseline” value ([1]; Responder patients, day 84) was -7.5 mg/dL, the “Total Cholesterol change from baseline” value ([1]; Responder patients, day 84) was -14.5 mg/dL and the “Weight change from baseline” value ([1]; Responder patients, day 84) was -1.33 kg. The “HOMA2% insulin sensitivity change from baseline” value ([1]; Responder patients, day 29) was 3.9 % S, the “HOMA2% β cell function change” value ([1]; Responder patients, day 29) was 2.1 % b and the “HOMA2 Insulin resistance change” value ([1]; Responder patients, day 29) was −0.3061 IR. For the same compound, the “HOMA2% insulin sensitivity change from baseline” value ([1]; Responder patients, day 57) was 1 % S, the “HOMA2% β cell function change” value ([1]; Responder patients, day 57) was 5.3 % b and the “HOMA2 Insulin resistance change” value ([1]; Responder patients, day 57) was −0.04016 IR. The “HOMA2% insulin sensitivity change from baseline” value ([1]; Responder patients, day 84) was −4.4 % S, the “HOMA2% β cell function change” value ([1]; Responder patients, day 84) was 16.3 % b and the “HOMA2 Insulin resistance change” value ([1]; Responder patients, day 84) was 0.2265 IR. For the same compound, the “HbA1c, treatment vs placebo” value ([1]; entire 72 patient population that completed dosing on day 84) was “no statistical difference”, the “decrease in HbA1c” value ([1]; retrospective subpopulation (BMI>=28, insulin>=4 μU/mL, C-peptide>=2 ng/mL, MCP1>=400 pg/mL), 84 days, compared to placebo, p=0.06) was −0.53% and the “decrease in HOMA2 insulin resistance” value [1, 3] was −0.65 IR. For the same compound, the “decrease in fasting plasma C-peptide” value [1, 3] was -0.43 ng/mL, the “decrease in fasting plasma insulin” value [1, 3] was −0.48 μU/mL and the decrease in fructosamine [1, 3] was -25.75 µmol/L. For the same compound, the “increase in HOMA2 beta cell function” value [1, 3] was 17.95 % B, the “increase in HOMA2 insulin sensitivity” value [1, 3] was 11.3 % S and the “decrease in fasting plasma glucose” value ([1]; retrospective subpopulation, 84 days, compared to placebo, p=0.09) was -28.75 mg/dL. For the same compound, the “sensitivity analysis using last observation carried forward” value ([1]; subpopulation individuals who completed at least 29 days of dosing) was “showed improvement”, the adiponectin ([2]; M<5 drug treated patients) was “not affected” and the Resistin ([2]; M<5 drug treated subjects) was “increased much less”. The “decrease in CRP” value ([2]; M<5 patients compared to M>5 patients, p=0.094 exact Mann-Whitney) was “significant”, the Leptin ([2]; all drug treated cohorts (decreased in placebo patients)) was “increased” and the “IL-1β (LPS stimulated PBMC)” value [2, 4] was “highly significant decrease”. The “IL-6 (LPS stimulated PBMC)” value [2, 4] was “highly significant decrease”, the “MCP1 (LPS stimulated PBMC)” value [2, 4] was “highly significant decrease” and the “TNFα (LPS stimulated PBMC)” value [2, 4] was “highly significant decrease”. The Leptin ([2]; cohort 6 (diabetic patients, 10 mg/day), p=0.002) was “significantly increased”, the “TNFα (LPS stimulated PBMC)” value ([2]; day 29, drug treated M<5 vs drug treated M>5 patients, p=0.075) was “greater decrease” and the “MCP1 (LPS stimulated PBMC)” value ([2]; day 29, drug treated M<5 vs drug treated M>5 patients, p=0.093) was “greater decrease”. For the same compound, the Resistin ([2]; drug treated subjects vs placebo control patients) was “increased less” and the CRP ([2]; insulin resistant subjects (M<5) compared to placebo-treated subjects, p=0.018 exact Mann-Whitney) was “significantly decreased”.
